Common to all, as to assay type: functional
Assay [1] has as its system NCI-H520. As to the kind of experiment: Cytotoxicity against human NCI-H520 cells assessed as cell survival at 100 uM relative to control. To be noted: read-out: Activity.
For assay [2], the system named is NCI-H520. The assay can be described thus: Cytotoxicity against human NCI-H520 cells assessed as cell survival at 50 uM relative to control. To be noted: read-out: Activity.
In assay [3] the test system is PC-3. The assay can be described thus: Cytotoxicity against human PC3 cells assessed as cell survival at 10 uM relative to control. The note with it: read-out: Activity.
For assay [4], the system named is PC-3. As to the kind of experiment: Cytotoxicity against human PC3 cells assessed as cell survival at 100 uM relative to control. The note with it: read-out: Activity.
For assay [5], the system named is PC-3. The assay can be described thus: Cytotoxicity against human PC3 cells assessed as cell survival at 50 uM relative to control. The note with it: read-out: Activity.
The subject of assay [6] is NCI-H520. The assay can be described thus: Cytotoxicity against human NCI-H520 cells assessed as cell survival at 10 uM relative to control. The note with it: read-out: Activity.
Assay [7] deals with PC-3. The assay can be described thus: Growth inhibition of human PC3 cells.
Assay [8] relates to NCI-H520. As to the kind of experiment: Growth inhibition of human NCI-H520 cells.

As to `COc1cc([C@@H]2c3[nH]c4ccccc4c3C[C@H]3C(=O)N4[C@H](c5cc(OC)c(OCc6ccccc6)c(OC)c5)c5[nH]c6ccccc6c5C[C@H]4C(=O)N23)cc(OC)c1OCc1ccccc1`, the viability at 100 µM in the assay on NCI-H520 [1] was 81%; with PC-3 [4], 54.5%. Besides, the viability at 50 µM with NCI-H520 [2] is 81.3%; with PC-3 [5], 68.8%. The viability at 10 µM came to 98.2% with PC-3 [3] and 88.1% in the assay with NCI-H520 [6].

`COc1cc([C@@H]2c3[nH]c4ccccc4c3C[C@H]3C(=O)N4[C@H](c5cc(OC)c(OC)c(OC)c5)c5[nH]c6ccccc6c5C[C@H]4C(=O)N23)cc(OC)c1OC`: the viability at 100 µM in the assay with NCI-H520 [1] came out at 86.7%; in the assay with PC-3 [4], 65%. Further, the viability at 50 µM in the assay on NCI-H520 [2] was 90.8%; with PC-3 [5], 80.5%. The viability at 10 µM in the assay with PC-3 [3] stood at 93%; in the assay with NCI-H520 [6] it was 90.3%.

For the molecule `COc1cc([C@H]2c3[nH]c4ccccc4c3C[C@@H]3C(=O)N4[C@@H](c5cc(OC)c(O)c(OC)c5)c5[nH]c6ccccc6c5C[C@@H]4C(=O)N23)cc(OC)c1O`, the viability at 100 µM with NCI-H520 [1] is 26.8%; in the assay on PC-3 [4], 15.7%. Moreover, the GI50 with PC-3 [7] is 55.3 µM; in the assay with NCI-H520 [8], 61.5 µM. Also, the viability at 50 µM with NCI-H520 [2] was determined as 53.2%; in the assay with PC-3 [5], 43.6%. Also, the viability at 10 µM in the assay with PC-3 [3] was > 100%; with NCI-H520 [6] it was 88.7%.

`COc1cc([C@H]2c3[nH]c4ccccc4c3C[C@@H]3C(=O)N4[C@@H](c5cc(OC)c(OCc6ccccc6)c(OC)c5)c5[nH]c6ccccc6c5C[C@@H]4C(=O)N23)cc(OC)c1OCc1ccccc1`: the viability at 100 µM is 84.5% in the assay on NCI-H520 [1] and 65.1% with PC-3 [4]. The values for the viability at 50 µM in the assay on NCI-H520 [2] and in the assay with PC-3 [5] were > 100% and 92.7%, respectively. The viability at 10 µM with PC-3 [3] and in the assay on NCI-H520 [6] was > 100% in each case.

Molecule `CC(C)=CCc1[nH]c2ccccc2c1C[C@@H]1NC(=O)[C@H]2CCCN2C1=O` yielded a concentration for 50% growth inhibition (GI50) with PC-3 [7] of 12.3 µM.

Regarding `COc1cc([C@H]2c3[nH]c4ccccc4c3C[C@@H]3C(=O)N4[C@@H](c5cc(OC)c(OC)c(OC)c5)c5[nH]c6ccccc6c5C[C@@H]4C(=O)N23)cc(OC)c1OC`, the viability at 100 µM in the assay on NCI-H520 [1] was 98.9%; with PC-3 [4], 77.4%. Further, the viability at 50 µM was 98.9% in the assay with NCI-H520 [2] and > 100% in the assay on PC-3 [5]. For the same molecule, the viability at 10 µM was > 100% in the assay on PC-3 [3] and 99.8% in the assay on NCI-H520 [6].

`COc1cc([C@@H]2c3[nH]c4ccccc4c3C[C@H]3C(=O)N4[C@H](c5cc(OC)c(O)c(OC)c5)c5[nH]c6ccccc6c5C[C@H]4C(=O)N23)cc(OC)c1O`: the viability at 100 µM with NCI-H520 [1] was determined as 5.8%; in the assay on PC-3 [4] it was 1.6%. Also, the concentration for 50% growth inhibition (GI50) with PC-3 [7] was determined as 21.9 µM; with NCI-H520 [8], 21.5 µM. For the same molecule, the viability at 50 µM in the assay with NCI-H520 [2] amounted to 16.5%; in the assay on PC-3 [5], 3.3%. Moreover, the figures for the viability at 10 µM in the assay with PC-3 [3] and with NCI-H520 [6] were 80.7% and 67.3%, respectively.

Consider `COc1cc([C@@H]2c3cc4c(cc3[C@@H](O[C@@H]3O[C@@H]5CO[C@@H](C)O[C@H]5[C@H](O)[C@H]3O)[C@H]3COC(=O)[C@H]23)OCO4)cc(OC)c1O` [ETOPOSIDE], for which the viability at 100 µM in the assay with NCI-H520 [1] was 21.3%; in the assay on PC-3 [4], 30.8%. The results for the GI50 in the assay on PC-3 [7] and in the assay with NCI-H520 [8] were 12.5 µM and 13.5 µM, respectively. Besides, the figures for the viability at 50 µM with NCI-H520 [2] and in the assay with PC-3 [5] were 35.2% and 41.2%, respectively. For the same molecule, the results for the viability at 10 µM in the assay on PC-3 [3] and with NCI-H520 [6] were 73.8% and 78.6%, respectively.

Broadly, the GI50 is the concentration that inhibits growth by half. Low values mean greater sensitivity of the cells, high ones lower sensitivity of the cells.
